For orientation: inhibition means the change of the read-out against control, counted positive when it falls. A word on the pIC50: it is the negative decadic logarithm of the IC50, by convention in mol/L.

Experimental findings from patent US20090111810A1, “SUBSTITUTED PYRIMIDINE-5-CARBOXAMIDE AND 5-CARBOXYLIC ESTER KINASE INHIBITORS” (priority 2007, published 2009) are described below.

Experiment [1] has as its target T1, HER-2 kinase (GST-HIS6-Thrombin fusion, amino acids 679 to 1255 of HER-2) (Homo sapiens, UniProt P04626).
T1 construct: HIS6-Thrombin site (N); purchased Proqinase (Freiburg, Germany)
Description: HER-2 Kinase Assay. It counts as biochemical. The note with it: for inhibition at 100 µM: test concentration of 100 μM, read-out: HER2 % inhibition; for pIC50: read-out: HER2 IC50. As to the method:
The HER-2 kinase used was purified at Proqinase (Freiburg, Germany) from a construct that consisted of a fusion of GST (Glutathione-S-Transferase), HIS6-Thrombin and the nucleotides encoding amino acids 679 to 1255 of HER-2 (Accession Number M11730).
A mixture of a 10× kinase reaction buffer (600 mM Hepes at pH 7.5, 30 mM Magnesium Chloride, 0.03 mM Sodium Vanadate and 500 μg/mL PEG 20,000), DTT (1.2 mM final from a 10 mM stock), ATP (1 μM from a 10 mM stock), biotinylated polyGluTyr (1.5 ng/μL final from stock of 1 μg/μL) prepared by Upstate Biotechnologies, Lake Placid, N.Y.), Manganese Chloride (3 mM final from a 1 M stock), γ-^33P-ATP (10 μCi/μL stock) and water (70 μL/well) was added to each well of a Streptavidin Flashplate (Cat. # SMP103, NEN, Boston, Mass.).
Test compound stock (1 μL) was added to the appropriate wells. Diluted GSTHER2 kinase (6.7 ng/μL diluted into 50 mM Tris-HCl at pH 8.0 and 0.1% bovine serum albumin) (30 μL) was added (total volume of 200 ng/well) to initiate the reactions.
The reaction plates were incubated at 30° C. for 1 hr. The reaction was terminated by aspirating the reaction mixture from the plate wells and washing the wells three times with a 1× PBS stop buffer (300 μL) and 100 mM EDTA. After the final wash, the same stop buffer (200 μL) was again added to the wells. The plates were then sealed and read on the TopCount scintillation counter.
Test compounds were assayed in triplicate at 8 concentrations at one-log dilutions starting at 100 μM. A maximum and minimum signal for the assay was determined on each plate. The percent inhibition of a test compound was calculated according to the formula: […]
(§1) For a series of test concentrations, the IC50 was derived by graphing percent inhibition against the log of the concentrations tested for a given compound.

The test system of experiment [2] is HeLa cervical adenocarcinoma. Briefly: Inhibition of in vitro cell proliferation (14C-thymidine incorporation), HeLa. The note with it: Homo sapiens, HeLa cells. Format: cell-based. The method, then: (§2) The ability of a test compound to inhibit the proliferation of cell growth was determined by measuring incorporation of ^14C-labelled thymidine into newly synthesized DNA within the cells. This method was used on American Type Culture Collection (ATCC, Virginia) cell lines derived from carcinomas originating from several tissues such as HeLa cervical adenocarcinoma (ATCC Cat. #CCL-2), HCT-116 colon carcinoma (ATCC Cat. #CCL-247), and A375 malignant melanoma (ATCC Cat. #CRL-1619).
(§3) The carcinoma cells are trypsinized and counted. The cells (3000-8000 count) are added to each well of a 96-well CytoStar tissue culture treated scintillating microplate (Amersham #RPNQ0160) in complete medium (100 μL) and the plate is then incubated in complete medium for 24 hrs at 37° C. in an inert atmosphere containing 5% CO2.
(§4) Test compound (1 μL) in 100% DMSO is added to the plate test-wells with DMSO only added to control-wells. The plate is incubated in complete medium for a second 24 hr period at 37° C. in an atmosphere containing 5% CO2.
(§5) An aliquot of a solution of Methyl ^14C-thymidine (56 mC/mmol) (NEN #NEC568 or Amersham #CFA532) in complete medium (20 uL to provide 0.2 μCi/well) is then added to each well and the plate is incubated for a third 24 hr period at 37° C. in an atmosphere containing 5% CO2.
(§6) The plate contents are then discarded, the plate is washed twice with PBS (200 μL) and then PBS (200 μL) is added to each well. The plate is sealed and the degree of methyl ^14C-thymidine incorporation is quantified on a Packard Top Count.

Another experiment has as its system HCT-116 colon carcinoma. Description: Inhibition of in vitro cell proliferation (14C-thymidine incorporation), HCT116. Format: cell-based. The following applies: Homo sapiens, HCT116 cells. The method, then:
as §2, §3, §4, §5, §6
For orientation: Dividing cells build labelled thymidine or BrdU into new DNA.

Another experiment deals with A375 malignant melanoma. Description: Inhibition of in vitro cell proliferation (14C-thymidine incorporation), A375. It counts as cell-based. The note with it: Homo sapiens, A-375, A375 cells. The method, then: as §2, §3, §4, §5, §6
For experiment [3], the target named is T2, EGFR kinase (GST fusion of intracellular portion of EGFR, NM_005228) (Homo sapiens, UniProt P00533).
T2 construct: The intracellular portion of EGFR started at nucleotide 2189 (corresponding to amino acid 667) and ended at the termination codon; made in house; host or cells: Sf9 insect cells (baculovirus)
T2 sequence (P00533 669-1210 limits assumed): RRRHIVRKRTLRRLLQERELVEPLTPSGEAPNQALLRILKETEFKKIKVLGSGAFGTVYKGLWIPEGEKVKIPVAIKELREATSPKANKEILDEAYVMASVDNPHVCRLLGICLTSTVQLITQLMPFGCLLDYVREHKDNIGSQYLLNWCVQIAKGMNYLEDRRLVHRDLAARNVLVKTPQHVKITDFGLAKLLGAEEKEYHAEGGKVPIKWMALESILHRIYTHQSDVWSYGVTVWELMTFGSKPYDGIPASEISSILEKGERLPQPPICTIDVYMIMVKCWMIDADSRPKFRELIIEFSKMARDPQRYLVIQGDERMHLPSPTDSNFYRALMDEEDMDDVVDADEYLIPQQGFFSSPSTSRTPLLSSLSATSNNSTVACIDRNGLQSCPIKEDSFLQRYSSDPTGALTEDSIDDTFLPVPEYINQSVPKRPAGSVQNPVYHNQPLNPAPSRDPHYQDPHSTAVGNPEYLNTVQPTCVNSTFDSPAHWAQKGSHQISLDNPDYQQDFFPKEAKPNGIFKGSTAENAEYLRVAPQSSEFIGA
Briefly: EGFR Kinase Assay. Format: biochemical. The following applies: for inhibition at 2 µM: test concentration of 2 μM.
Source text: The portion was PCR amplified with primers that added the lambda attB sequences to each end, recombined into an entry vector, then into a (GST destination vector (as described in Gateway Technologies Manual by Invitrogen Corporation, Carlsbad, Calif.).
The destination vector was recombined in the DH10BAC strain of bacteria to produce a bacmid. The bacmid was transfected into Sf 9 cells and the supernatant containing the baculovirus was collected. The GSTEGFR protein was purified using large cultures of Sf 9 cells infected with stock virus. After an appropriate period of time, the cells were collected and lysed. The GSTEGFR was then purified from the lysate on Glutathione-Sepharose columns (as described by Amersham Biosciences, Buckinghamshire, United Kingdom).
The free biotin was separated from the biotinylated polyGluTyr on a gel filtration column.
A mixture of a 10× kinase buffer (500 mM Tris at pH 8.0, 100 mM Magnesium Chloride and 1 mM Sodium Vanadate), DTT (1 mM final from 500 mM stock), ATP (5 μM final from […]), biotinylated polyGluTyr (10 μg/μL stock), γ-^33P ATP (10 μCi/μL stock) and water was added to each well (90 μL/well) of a Streptavidin Flashplate (Perkin Elmer, Wellesley, Mass.).
Test compound in 100% DMSO (2 μL) was added to the appropriate wells. Diluted GSTEGFR (1:300 dilution in 50 mM Tris at pH 8.0 and 0.1% bovine serum albumin) (10 μL) was added to the wells to initiate the reactions.
The plates were incubated at 30° C. for 1 hr with shaking, The reacted contents were removed and the plates were sequentially washed three times with a 1×PBS stop buffer (300 μL without Magnesium and Calcium) and 100 mM EDTA. After the final wash, the same stop buffer (200 μL) was added to the wells. The plates were then sealed and read on the TopCount scintillation counter.
Test compounds were assayed in triplicate at 16 concentrations at half-log dilutions starting at 200 μM. A maximum and minimum signal for the assay was determined on each plate. The percent inhibition of a test compound was calculated according to the formula
as §1

pIC50: −log10 of the molar value.

T1 sequence (P04626 679-1255): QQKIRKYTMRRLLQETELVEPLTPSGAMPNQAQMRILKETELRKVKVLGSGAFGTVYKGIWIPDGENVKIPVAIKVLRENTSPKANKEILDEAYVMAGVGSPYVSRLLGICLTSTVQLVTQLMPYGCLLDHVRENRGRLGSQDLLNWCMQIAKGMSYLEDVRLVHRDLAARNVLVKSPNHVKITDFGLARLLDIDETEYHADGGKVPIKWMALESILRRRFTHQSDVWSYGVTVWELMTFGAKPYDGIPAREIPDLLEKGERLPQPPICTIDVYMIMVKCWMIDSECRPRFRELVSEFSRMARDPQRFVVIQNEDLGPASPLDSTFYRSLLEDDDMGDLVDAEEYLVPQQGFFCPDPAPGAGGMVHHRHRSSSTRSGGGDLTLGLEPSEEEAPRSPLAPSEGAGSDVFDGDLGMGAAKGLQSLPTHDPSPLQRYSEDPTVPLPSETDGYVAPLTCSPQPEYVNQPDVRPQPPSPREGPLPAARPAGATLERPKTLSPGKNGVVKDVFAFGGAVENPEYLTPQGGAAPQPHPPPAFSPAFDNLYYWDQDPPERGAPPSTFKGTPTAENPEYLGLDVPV

Take `COC(=O)c1c(N)ncnc1Nc1ccc(OCc2ccccc2)c(Cl)c1` [Cpd 1, 4-amino-6-(4-benzyloxy-3-chloro-phenylamino)-pyrimidine-5-carboxylic acid methyl ester]: in experiment [1], the inhibition at 100 µM is 92%. Besides, the pIC50 was 5.72 in experiment [2], 5.52 in the experiment with HCT-116 colon carcinoma and 6.00 in the experiment on A375 malignant melanoma.
Consider `Nc1ncnc(Nc2ccc(OCc3ccccc3)c(Cl)c2)c1C(=O)O` [Cpd 2, 4-amino-6-(4-benzyloxy-3-chloro-phenylamino)-pyrimidine-5-carboxylic acid], for which the pIC50 in experiment [1] was 6.11; in experiment [2], below 5.00; in the experiment on HCT-116 colon carcinoma it was below 5.00; with A375 malignant melanoma it was below 5.00.
On to `Nc1ncnc(Nc2ccc(OCc3ccccc3)c(Cl)c2)c1C(=O)OCCN1CCOCC1` [Cpd 3, 4-amino-6-(4-benzyloxy-3-chloro-phenylamino)-pyrimidine-5-carboxylic acid 2-morpholin-4-yl-ethyl ester], for which the pIC50 was 5.86 in experiment [1], below 5.00 in experiment [2] and 5.29 in the experiment on A375 malignant melanoma.
For the molecule `Nc1ncnc(Nc2ccc(OCc3ccccc3)c(Cl)c2)c1C(=O)OCc1cccc(F)c1` [Cpd 4, 4-amino-6-(4-benzyloxy-3-chloro-phenylamino)-pyrimidine-5-carboxylic acid 3-fluoro-benzyl ester], in experiment [3], the inhibition at 2 µM is 34%. For the same molecule, the inhibition at 100 µM in experiment [1] turned out to be 21%. Besides, the pIC50 (in experiment [2]; with HCT-116 colon carcinoma; with A375 malignant melanoma) was below 5.00 throughout.
`CCN(CC)C(=O)c1c(N)ncnc1Nc1ccc(OCc2ccccc2)c(Cl)c1` [Cpd 5, 4-amino-6-(4-benzyloxy-3-chloro-phenylamino)-pyrimidine-5-carboxylic acid diethylamide] had an inhibition at 2 µM in experiment [3] of 36%. Also, in experiment [1], the inhibition at 100 µM worked out at 39%. Moreover, the pIC50 (in experiment [2]; with HCT-116 colon carcinoma; in the experiment with A375 malignant melanoma) was below 5.00 in each case.
For the molecule `COCCNC(=O)c1c(N)ncnc1Nc1ccc(OCc2ccccc2)c(Cl)c1` [Cpd 6, 4-amino-6-(4-benzyloxy-3-chloro-phenylamino)-pyrimidine-5-carboxylic acid (2-methoxy-ethyl)-amide], the inhibition at 2 µM in experiment [3] stood at 37%. For the same molecule, the inhibition at 100 µM in experiment [1] worked out at 33%. Besides, the pIC50 (in experiment [2]; in the experiment on HCT-116 colon carcinoma; with A375 malignant melanoma) was below 4.00 throughout.
For the molecule `Nc1ncnc(Nc2ccc(OCc3ccccc3)c(Cl)c2)c1C(=O)NCCN1CCCCC1` [Cpd 7, 4-amino-6-(4-benzyloxy-3-chloro-phenylamino)-pyrimidine-5-carboxylic acid (2-piperidin-1-yl-ethyl)-amide], the inhibition at 2 µM in experiment [3] came out at 42%. For the same molecule, the pIC50 is 5.00 in experiment [1], 4.47 in experiment [2], below 5.00 with HCT-116 colon carcinoma and below 6.00 in the experiment with A375 malignant melanoma.
In experiment [3], `Nc1ncnc(Nc2ccc(OCc3ccccc3)c(Cl)c2)c1C(=O)NCCN1CCOCC1` [Cpd 8, 4-amino-6-(4-benzyloxy-3-chloro-phenylamino)-pyrimidine-5-carboxylic acid (2-morpholin-4-yl-ethyl)-amide] registered an inhibition at 2 µM of 35%. For the same molecule, in experiment [1], the inhibition at 100 µM amounted to 82%. In addition, the pIC50 (in experiment [2]; in the experiment on HCT-116 colon carcinoma; with A375 malignant melanoma) was below 5.00 each time.
`COc1ccc(CCNC(=O)c2c(N)ncnc2Nc2ccc(OCc3ccccc3)c(Cl)c2)cc1` [Cpd 9, 4-amino-6-(4-benzyloxy-3-chloro-phenylamino)-pyrimidine-5-carboxylic acid [2-(4-methoxy-phenyl)-ethyl]-amide] gave an inhibition at 2 µM in experiment [3] of 28%. For the same molecule, the inhibition at 100 µM in experiment [1] worked out at 4%. The pIC50 (in experiment [2]; in the experiment on HCT-116 colon carcinoma; in the experiment on A375 malignant melanoma) was below 4.00 throughout.
Take `Nc1ncnc(Nc2ccc(OCc3ccccc3)c(Cl)c2)c1C(=O)Nc1ccccc1` [Cpd 10, 4-amino-6-(4-benzyloxy-3-chloro-phenylamino)-pyrimidine-5-carboxylic acid phenylamide]: the inhibition at 100 µM in experiment [1] came to 12%. Besides, the pIC50 (in experiment [2]; in the experiment on HCT-116 colon carcinoma; with A375 malignant melanoma) was below 4.00 each time.
`COc1ccc(NC(=O)c2c(N)ncnc2Nc2ccc(OCc3ccccc3)c(Cl)c2)cc1` [Cpd 11, 4-amino-6-(4-benzyloxy-3-chloro-phenylamino)-pyrimidine-5-carboxylic acid (4-methoxy-phenyl)-amide] yielded an inhibition at 2 µM in experiment [3] of 36%. Also, in experiment [1], the inhibition at 100 µM came out at 0%. For the same molecule, the negative logarithm of the IC50 (pIC50) (in experiment [2]; in the experiment with HCT-116 colon carcinoma; with A375 malignant melanoma) was below 4.00 in each case.
On to `NNC(=O)c1c(N)ncnc1Nc1ccc(OCc2ccccc2)c(Cl)c1` [Cpd 12, 4-amino-6-(4-benzyloxy-3-chloro-phenylamino)-pyrimidine-5-carboxylic acid hydrazide], for which the pIC50 in experiment [1] is 6.82; in experiment [2], 5.52; in the experiment with HCT-116 colon carcinoma, 5.47; in the experiment on A375 malignant melanoma it was 5.77.
As for `Nc1ncnc(Nc2ccc(OCc3ccccc3)c(Cl)c2)c1C(=O)NNC(=O)CCN1CCOCC1` [Cpd 13, 4-amino-6-(4-benzyloxy-3-chloro-phenylamino)-pyrimidine-5-carboxylic acid N′-(3-morpholin-4-yl-propionyl)-hydrazide], the pIC50 in experiment [3] was 6.21; in experiment [1], 5.24; in experiment [2] it was below 4.00; in the experiment on HCT-116 colon carcinoma, below 4.00; in the experiment on A375 malignant melanoma, below 4.00.
As to `Nc1ncnc(Nc2ccc(OCc3ccccc3)c(Cl)c2)c1C=O` [Cpd 14, 4-amino-6-(4-benzyloxy-3-chloro-phenylamino)-pyrimidine-5-carboxaldehyde], the inhibition at 100 µM in experiment [1] was 63%.
